Laboratory results as given in patent US10670605B2, “Cysteine reactive probes and uses thereof” (The Scripps Research Institute, priority 2015, dated 2020).
Each block holds one molecule with its values, some of them ahead of it.

Tests used:
Test in all cases: Competitive isoTOP-ABPP, cell lysates
Assay type in all cases: binding
IRF4 C194 (Q15306) = target: T1, IRF4 C194 (Q15306) (Homo sapiens, UniProt Q15306); details: for isoTOP-ABPP ratio (reactivity profile), Q15306_C194: 500 μm in-vitro ramos; for isoTOP-ABPP reactivity profile ratio, Q15306_C194 / isoTOP-ABPP reactivity ratio, Q15306_C194: 500 μm, in-vitro_ramos
T1 sequence (Q15306 1-451): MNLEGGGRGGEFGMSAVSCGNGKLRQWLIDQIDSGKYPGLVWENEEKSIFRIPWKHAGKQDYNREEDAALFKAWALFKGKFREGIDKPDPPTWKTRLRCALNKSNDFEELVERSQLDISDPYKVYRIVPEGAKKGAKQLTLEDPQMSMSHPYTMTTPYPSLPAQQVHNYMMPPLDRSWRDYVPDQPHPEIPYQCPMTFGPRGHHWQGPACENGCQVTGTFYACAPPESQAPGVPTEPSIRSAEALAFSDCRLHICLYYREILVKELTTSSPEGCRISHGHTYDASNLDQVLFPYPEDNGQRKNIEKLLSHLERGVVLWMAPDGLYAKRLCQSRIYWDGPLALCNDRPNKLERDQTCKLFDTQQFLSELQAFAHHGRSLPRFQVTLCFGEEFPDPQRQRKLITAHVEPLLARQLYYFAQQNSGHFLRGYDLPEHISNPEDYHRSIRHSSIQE

PDE12 C108 (Q6L8Q7) = target: T2, PDE12 C108 (Q6L8Q7) (Homo sapiens, UniProt Q6L8Q7); details: for isoTOP-ABPP reactivity ratio, Q6L8Q7_C108 / isoTOP-ABPP reactivity profile ratio, Q6L8Q7_C108: 500 μm; for isoTOP-ABPP ratio, Q6L8Q7_C108: 500 μM, invitro
T2 sequence (Q6L8Q7 43-609): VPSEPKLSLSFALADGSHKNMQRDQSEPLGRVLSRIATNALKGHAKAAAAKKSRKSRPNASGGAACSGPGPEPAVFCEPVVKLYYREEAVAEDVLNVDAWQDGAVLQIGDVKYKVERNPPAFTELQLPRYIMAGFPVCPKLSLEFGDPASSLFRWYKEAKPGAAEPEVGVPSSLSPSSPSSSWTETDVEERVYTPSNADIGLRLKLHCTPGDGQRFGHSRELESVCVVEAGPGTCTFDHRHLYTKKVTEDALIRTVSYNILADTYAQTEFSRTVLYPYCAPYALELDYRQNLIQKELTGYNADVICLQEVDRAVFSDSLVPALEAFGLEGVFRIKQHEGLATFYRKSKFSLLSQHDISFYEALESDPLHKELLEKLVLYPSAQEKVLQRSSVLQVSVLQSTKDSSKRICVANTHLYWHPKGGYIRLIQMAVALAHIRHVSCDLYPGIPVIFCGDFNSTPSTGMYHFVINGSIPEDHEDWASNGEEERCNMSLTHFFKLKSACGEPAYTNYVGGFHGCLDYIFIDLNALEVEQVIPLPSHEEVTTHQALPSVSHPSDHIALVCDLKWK

IDH2 C308 (P48735) = target: T3, IDH2 C308 (P48735) (Homo sapiens, UniProt P48735); details: for isoTOP-ABPP reactivity profile ratio, P48735_C308 / isoTOP-ABPP reactivity ratio, P48735_C308: 500 μm
T3 sequence (P48735 40-452): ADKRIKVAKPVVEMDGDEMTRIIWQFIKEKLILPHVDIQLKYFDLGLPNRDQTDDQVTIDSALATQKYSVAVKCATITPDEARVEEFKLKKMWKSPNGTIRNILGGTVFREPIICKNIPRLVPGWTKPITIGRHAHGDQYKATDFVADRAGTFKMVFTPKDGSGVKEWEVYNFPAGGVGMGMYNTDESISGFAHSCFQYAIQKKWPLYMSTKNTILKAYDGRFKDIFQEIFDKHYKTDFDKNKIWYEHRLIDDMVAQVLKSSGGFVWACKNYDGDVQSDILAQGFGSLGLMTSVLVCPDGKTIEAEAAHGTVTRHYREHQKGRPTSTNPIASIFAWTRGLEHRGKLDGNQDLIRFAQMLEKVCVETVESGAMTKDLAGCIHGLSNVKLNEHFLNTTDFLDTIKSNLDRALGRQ

SMILES: N#C/C(=C\c1cc(C(F)(F)F)cc(C(F)(F)F)c1)C(N)=O [compound 23]
isoTOP-ABPP ratio (reactivity profile), Q15306_C194 (IRF4 C194 (Q15306)): 1.9
isoTOP-ABPP ratio (reactivity profile), Q6L8Q7_C108 (PDE12 C108 (Q6L8Q7); 500 μm in-vitro ramos_231): 1.0

SMILES: C=CC(=O)N(Cc1cccnc1)c1ccc(Oc2ccccc2)c(C(F)(F)F)c1 [compound 15]
isoTOP-ABPP ratio (reactivity profile), Q15306_C194 (IRF4 C194 (Q15306)): 2.2
isoTOP-ABPP ratio, Q6L8Q7_C108 (PDE12 C108 (Q6L8Q7); 231): 1.1

SMILES: CC(Br)C(=O)Nc1cc(C(F)(F)F)cc(C(F)(F)F)c1 (centres unmarked) [compound 24]
isoTOP-ABPP ratio (reactivity profile), Q15306_C194 (IRF4 C194 (Q15306)): 1.9
isoTOP-ABPP ratio (reactivity profile), Q6L8Q7_C108 (PDE12 C108 (Q6L8Q7); 500 μm in-vitro ramos): 1.4

SMILES: C=CC(=O)N(Cc1cccnc1)c1cc(C(F)(F)F)cc(C(F)(F)F)c1 [compound 31]
isoTOP-ABPP reactivity ratio, Q15306_C194 (IRF4 C194 (Q15306)): 1.1
isoTOP-ABPP reactivity ratio, Q6L8Q7_C108 (PDE12 C108 (Q6L8Q7); in-vitro_ramos_231): 2.0
isoTOP-ABPP reactivity ratio, P48735_C308 (IDH2 C308 (P48735); in-vitro_ramos): 1.1
isoTOP-ABPP reactivity ratio, P48735_C308 (IDH2 C308 (P48735); in-vitro_ramos_231): 1.3

SMILES: CC(Cl)C(=O)Nc1cc(C(F)(F)F)cc(C(F)(F)F)c1 (centres unmarked) [compound 25]
isoTOP-ABPP ratio (reactivity profile), Q6L8Q7_C108 (PDE12 C108 (Q6L8Q7); 500 μm in-vitro ramos_231): 0.8
isoTOP-ABPP ratio (reactivity profile), P48735_C308 (IDH2 C308 (P48735); 500 μm in-vitro ramos_231): 14.5

SMILES: CCN(CC)c1ccc(S(N)(=O)=O)cc1NC(=O)CCl [compound 30]
isoTOP-ABPP reactivity ratio, Q15306_C194 (IRF4 C194 (Q15306)): 1.7
isoTOP-ABPP ratio (reactivity profile), Q6L8Q7_C108 (PDE12 C108 (Q6L8Q7); 500 μm in-vitro ramos): 1.1
isoTOP-ABPP reactivity ratio, Q6L8Q7_C108 (PDE12 C108 (Q6L8Q7); in-vitro_ramos): 1.6
isoTOP-ABPP ratio (reactivity profile), P48735_C308 (IDH2 C308 (P48735); 500 μm in-vitro ramos): 0.7

SMILES: O=C(CCl)NCCc1c[nH]c2ccccc12 [compound 13]
isoTOP-ABPP ratio, Q15306_C194 (IRF4 C194 (Q15306); 500 μM, invitro, ramos): 1.1
isoTOP-ABPP ratio, Q6L8Q7_C108 (PDE12 C108 (Q6L8Q7); ramos): 1.0
isoTOP-ABPP ratio, P48735_C308 (IDH2 C308 (P48735); 500 μM, invitro, 231): 1.1

SMILES: COc1ccc(C2CC(c3cccs3)=NN2C(=O)CCl)cc1 (centres unmarked) [compound 4]
R value (DMSO/fragment) (IDH2 C308 (P48735); 250 μM, in vitro, MDA-MB-231): 0.7

SMILES: O=C(CCl)N1CCN(CC(=O)N2CCOCC2)CC1 [compound 29]
isoTOP-ABPP ratio (reactivity profile), Q15306_C194 (IRF4 C194 (Q15306)): 1.2
isoTOP-ABPP ratio (reactivity profile), P48735_C308 (IDH2 C308 (P48735); 500 μm in-vitro ramos_231): 1.0

SMILES: O=C(/C=C/c1ccccc1)Nc1cc(C(F)(F)F)cc(C(F)(F)F)c1 [compound 26]
isoTOP-ABPP ratio (reactivity profile), Q15306_C194 (IRF4 C194 (Q15306)): 1.1
isoTOP-ABPP ratio (reactivity profile), Q6L8Q7_C108 (PDE12 C108 (Q6L8Q7); 500 μm in-vitro ramos): 1.1

Results, then the molecule that gave them:

isoTOP-ABPP reactivity profile ratio, P48735_C308 (IDH2 C308 (P48735); in-vitro_ramos_231): 1.0
SMILES: CC1CCc2ccccc2N1C(=O)CCl (centres unmarked) [compound 45]

isoTOP-ABPP reactivity profile ratio, Q15306_C194 (IRF4 C194 (Q15306)): 1.4
SMILES: O=C(CCl)Nc1cccc2ncccc12 [compound 51]

isoTOP-ABPP reactivity ratio, Q15306_C194 (IRF4 C194 (Q15306)): 2.1
isoTOP-ABPP reactivity ratio, Q6L8Q7_C108 (PDE12 C108 (Q6L8Q7); in-vitro_ramos): 6.8
isoTOP-ABPP reactivity ratio, Q6L8Q7_C108 (PDE12 C108 (Q6L8Q7); in-vitro_ramos_231): 0.9
isoTOP-ABPP reactivity ratio, P48735_C308 (IDH2 C308 (P48735); in-vitro_ramos_231): 1.2
SMILES: C=CC(=O)Nc1cc(F)c(N2CCN(C(=O)OC(C)(C)C)CC2)c(F)c1 [compound 38]

isoTOP-ABPP reactivity profile ratio, Q15306_C194 (IRF4 C194 (Q15306)): 3.0
isoTOP-ABPP reactivity profile ratio, P48735_C308 (IDH2 C308 (P48735); in-vitro_ramos_231): 0.8
SMILES: COc1cc(NC(=O)CCl)cc(OC)c1 [compound 43]

isoTOP-ABPP reactivity profile ratio, Q6L8Q7_C108 (PDE12 C108 (Q6L8Q7); in-vitro_ramos_231): 1.8
isoTOP-ABPP reactivity profile ratio, P48735_C308 (IDH2 C308 (P48735); in-vitro_ramos_231): 2.2
SMILES: O=C(CCl)N1CCc2cc(Br)ccc21 [compound 50]

isoTOP-ABPP reactivity ratio, Q15306_C194 (IRF4 C194 (Q15306)): 0.9
SMILES: C=CC(=O)N1CCC(c2noc3ccc(F)cc23)CC1 [compound 37]

isoTOP-ABPP reactivity profile ratio, Q6L8Q7_C108 (PDE12 C108 (Q6L8Q7); in-vitro_ramos_231): 0.8
SMILES: O=C(CCl)NC1C(O)OC(CO)C(O)C1O (mixture of isomers) [compound 44]

isoTOP-ABPP reactivity ratio, Q15306_C194 (IRF4 C194 (Q15306)): 1.1
isoTOP-ABPP reactivity ratio, Q6L8Q7_C108 (PDE12 C108 (Q6L8Q7); in-vitro_ramos_231): 0.8
SMILES: C=CC(=O)Nc1cc(C)c(Br)cc1C [compound 40]
